Assay results reported in patent US11813306B2, “Cyclic tetramer compounds as proprotein convertase subtilisin/kexin type 9 (PCSK9) inhibitors for the treatment of metabolic disorders” (NOVARTIS AG, priority 2018, dated 2023).

Target: human PCSK9 (Homo sapiens, UniProt Q8NBP7)
Assay: PCSK9 ligand binding assay (TR-FRET): interference with binding of human PCSK9 to human LDLR
Conditions: for IC50: Human PCSK9 Alexa Fluor 647 / Human LDLR extracellular domain-Europium Kryptate; for Max % inhibition: efficacy (Amax), 100% = 1 uM unlabeled human PCSK9, 0% = DMSO
Outline: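 Read-out was TR-FRET ratio (665 nm over 615 nm, 330 nm excitation) between Alexa Fluor 647-human PCSK9 (16 nM added) and Europium Kryptate-human LDLR ectodomain (4 nM added). Compound and PCSK9 were mixed 30 min before LDLR, then incubated 2 h. Inhibition was normalised to DMSO and unlabelled-PCSK9 controls, giving IC50 and Amax.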

Chain of human PCSK9 (Q8NBP7 153-692): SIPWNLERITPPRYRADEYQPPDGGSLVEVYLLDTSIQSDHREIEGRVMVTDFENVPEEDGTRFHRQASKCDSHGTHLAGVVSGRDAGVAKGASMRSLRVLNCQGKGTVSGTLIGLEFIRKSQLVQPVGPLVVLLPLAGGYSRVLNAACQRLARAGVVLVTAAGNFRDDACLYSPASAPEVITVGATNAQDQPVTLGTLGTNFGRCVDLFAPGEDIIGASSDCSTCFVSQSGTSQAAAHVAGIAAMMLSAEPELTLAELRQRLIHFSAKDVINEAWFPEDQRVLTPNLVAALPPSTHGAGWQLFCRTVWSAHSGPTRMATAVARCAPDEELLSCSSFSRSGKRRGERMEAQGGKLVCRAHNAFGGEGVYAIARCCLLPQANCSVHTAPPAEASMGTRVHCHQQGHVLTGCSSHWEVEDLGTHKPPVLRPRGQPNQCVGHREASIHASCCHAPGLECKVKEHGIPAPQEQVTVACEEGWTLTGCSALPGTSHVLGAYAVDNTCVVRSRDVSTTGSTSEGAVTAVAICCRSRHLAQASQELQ
Chain of human PCSK9 (Q8NBP7 31-152 partner limits assumed): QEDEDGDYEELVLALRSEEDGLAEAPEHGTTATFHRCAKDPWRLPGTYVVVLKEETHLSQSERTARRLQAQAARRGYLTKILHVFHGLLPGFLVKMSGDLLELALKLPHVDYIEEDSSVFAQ

`COC[C@@H]1NC(=O)[C@H](CCCN2CCOCC2)N(Cc2ccc(Cl)cc2Oc2ccc(-c3cnc(CN(C)C)n3C)cc2)C(=O)C[C@@H]([C@H]2CCc3ccccc32)C(=O)N(C)C[C@@H](Cc2ccc(Cl)cc2)N(C)C1=O.Cl` [Compound 127, (2S, 5S, 8R, 12S)-1-(4-chloro-2-(4-(2-((dimethylamino)methyl)-1-methyl-1H-imidazol-5-yl)phenoxy)benzyl)-8-(4-chlorobenzyl)-12-((R)-2,3-dihydro-1H-inden-1-yl)-5-(methoxymethyl)-7,10-dimethyl-2-(3-morpholinopropyl)-1,4,7,10-tetraazacyclotetradecane-3,6,11,14-tetraone] showed an IC50 of 138 nM and a Max % inhibition of 94.3%.

Work on `COC[C@@H]1NC(=O)[C@H](C)N(Cc2ncc(Cl)cc2Oc2ccc(-c3cnc(CN(C)C)n3C)cc2)C(=O)C[C@@H](CC(F)(F)F)C(=O)N2CCC[C@@](Cc3ccc(Cl)cc3)(C2)NC1=O` [Compound 29, (3S, 7S, 10S, 13R)-6-((5-chloro-3-(4-(2-((dimethylamino)methyl)-1-methyl-1H-imidazol-5-yl)phenoxy)pyridin-2-yl)methyl)-13-(4-chlorobenzyl)-10-(methoxymethyl)-7-methyl-3-(2,2,2-trifluoroethyl)-1,6,9,12-tetraazabicyclo[11.3.1]heptadecane-2,5,8,11-tetraone] yielded an IC50 of 0.97 nM and a Max % inhibition of 119.8%.

`C[C@H]1C(=O)N[C@@H](CO)C(=O)N[C@@]2(Cc3ccc(Cl)cc3)CCCN(C2)C(=O)[C@H](Cc2cccc[n+]2[O-])CC(=O)N1Cc1ccc(Cl)cc1Oc1ccc(-c2cnc(CN(C)C)n2C)cc1` [Compound 66, 2-(((3R,7S,10S,13R)-6-(4-Chloro-2-(4-(2-((dimethylamino)methyl)-1-methyl-1H-imidazol-5-yl)phenoxy)benzyl)-13-(4-chlorobenzyl)-10-(hydroxymethyl)-7-methyl-2,5,8,11-tetraoxo-1,6,9,12-tetraazabicyclo[11.3.1]heptadecan-3-yl)methyl)pyridine 1-oxide] showed an IC50 of 0.673 nM and a Max % inhibition of 104.2%.

`C[C@H]1C(=O)N[C@@H](CO)C(=O)N(C)[C@@]2(Cc3ccc(Cl)cc3)CCCN(C2)C(=O)[C@H](Cc2ccccc2)CC(=O)N1Cc1ccc(Cl)cc1Oc1ccc(-c2cnc(CN(C)C)n2C)cc1` [Compound 53, (3R, 7S, 10S, 13R)-3-benzyl-6-(4-chloro-2-(4-(2-((dimethylamino)methyl)-1-methyl-1H-imidazol-5-yl)phenoxy)benzyl)-13-(4-chlorobenzyl)-10-(hydroxymethyl)-7,12-dimethyl-1,6,9,12-tetraazabicyclo[11.3.1]heptadecane-2,5,8,11-tetraone] showed an IC50 of 0.7 nM and a Max % inhibition of 107.4%.

`C[C@H]1C(=O)N[C@@H](CO)C(=O)N[C@@]2(Cc3ccc(Cl)cc3)CCCN(C2)C(=O)[C@H]([C@@H]2CCc3ccccc32)CC(=O)N1Cc1ccc(Cl)cc1Oc1ccc(-c2cnc(CN3CCCC3)n2C)cc1.Cl` [Compound 74, (3S, 7S, 10S, 13R)-6-(4-chloro-2-(4-(1-methyl-2-(pyrrolidin-1-ylmethyl)-1H-imidazol-5-yl)phenoxy)benzyl)-13-(4-chlorobenzyl)-3-((S)-2,3-dihydro-1H-inden-1-yl)-10-(hydroxymethyl)-7-methyl-1,6,9,12-tetraazabicyclo[11.3.1]heptadecane-2,5,8,11-tetraone] gave an IC50 of 1.73 nM and a Max % inhibition of 99.1%.

Compound `C[C@H]1C(=O)N[C@@H](CO)C(=O)N[C@@]2(Cc3ccc(Cl)cc3)CCCN(C2)C(=O)[C@H]([C@@H]2CCc3ccccc32)CC(=O)N1Cc1ccccc1Oc1ccc(-c2cnc(CN(C)C)n2C)cc1` [Compound 55, (3S,7S,10S,13R)-13-(4-chlorobenzyl)-3-((S)-2,3-dihydro-1H-inden-1-yl)-6-(2-(4-(2-((dimethylamino)methyl)-1-methyl-1H-imidazol-5-yl)phenoxy)benzyl)-10-(hydroxymethyl)-7-methyl-1,6,9,12-tetraazabicyclo[11.3.1]heptadecane-2,5,8,11-tetraone] has an IC50 of 0.742 nM and a Max % inhibition of 96.0%.

For `COC[C@@H]1NC(=O)[C@H](C)N(Cc2ccc(Cl)cc2Oc2ccc(-c3cnc(CN4CCC(O)CC4)n3C)cc2)C(=O)C[C@@H](Cc2ccccc2)C(=O)N2CCC[C@@](Cc3ccc(Cl)cc3)(C2)NC1=O.Cl` [Compound 61], the IC50 was 0.623 nM and the Max % inhibition was 109.3%.

For `COC[C@@H]1NC(=O)[C@H](C)N(Cc2c(F)cc(Cl)cc2Oc2ccc(-c3cnc(CN4CCCC4)n3C)cc2)C(=O)C[C@@H](Cc2cccc(C)n2)C(=O)N2CCC[C@@](Cc3ccc(Cl)cc3)(C2)N(C)C1=O` [Compound 14], the IC50 was 0.632 nM and the Max % inhibition was 102.7%.

For `COC[C@@H]1NC(=O)[C@H](C)N(Cc2ccc(Cl)cc2Oc2ccc(-c3cnc(CNC(C)(C)C)n3C)cc2)C(=O)C[C@@H](CC(F)(F)F)C(=O)N2CCC[C@@](Cc3ccc(Cl)cc3)(C2)NC1=O` [Compound 6, (3S, 7S, 10S, 13R)-6-(2-(4-(2-((tert-butylamino)methyl)-1-methyl-1H-imidazol-5-yl)phenoxy)-4-chlorobenzyl)-13-(4-chlorobenzyl)-10-(methoxymethyl)-7-methyl-3-(2,2,2-trifluoroethyl)-1,6,9,12-tetraazabicyclo[11.3.1]heptadecane-2,5,8,11-tetraone], the IC50 was 0.956 nM and the Max % inhibition was 119.9%.

`COC[C@@H]1NC(=O)[C@H](C)N(Cc2ccc(Cl)cc2Oc2ccc(-c3cnc(CN(C)C)n3C)cc2)C(=O)C[C@@H]([C@@H]2CCc3ccccc32)C(=O)N2CCC[C@@](Cc3ccc(Cl)cc3)(C2)NC1=O.Cl` [Compound 95, (3S, 7S, 10S, 13R)-6-(4-chloro-2-(4-(2-((dimethylamino)methyl)-1-methyl-1H-imidazol-5-yl)phenoxy)benzyl)-13-(4-chlorobenzyl)-3-((S)-2,3-dihydro-1H-inden-1-yl)-10-(methoxymethyl)-7-methyl-1,6,9,12-tetraazabicyclo[11.3.1]heptadecane-2,5,8,11-tetraone] showed an IC50 of 1.88 nM and a Max % inhibition of 102.5%.

`C[C@H]1C(=O)N[C@@H](CO)C(=O)N[C@@]2(Cc3ccc(Cl)cc3)CCCN(C2)C(=O)[C@H](Cc2ccccc2)CC(=O)N1Cc1ccc(Cl)cc1Oc1ccc(-c2cnc(CN(C)C)n2C)cc1` [Compound 50, (3R,7S,10S,13R)-3-Benzyl-6-(4-chloro-2-(4-(2-((dimethylamino)methyl)-1-methyl-1H-imidazol-5-yl)phenoxy)benzyl)-13-(4-chlorobenzyl)-10-(hydroxymethyl)-7-methyl-1,6,9,12-tetraazabicyclo[11.3.1]heptadecane-2,5,8,11-tetraone] showed an IC50 of 0.51 nM and a Max % inhibition of 108.7%.

With `C[C@H]1C(=O)N[C@@H](CO)C(=O)N[C@@]2(Cc3ccc(Cl)cc3)CCCN(C2)C(=O)[C@H](Cc2ccccc2)CC(=O)N1Cc1c(F)cc(Cl)cc1Oc1ccc(-c2cnc(CN(C)C)n2C)cc1` [Compound 11, (3R, 7S, 10S, 13R)-3-benzyl-6-(4-chloro-2-(4-(2-((dimethylamino)methyl)-1-methyl-1H-imidazol-5-yl)phenoxy)-6-fluorobenzyl)-13-(4-chlorobenzyl)-10-(hydroxymethyl)-7-methyl-1,6,9,12-tetraazabicyclo[11.3.11]-heptadecane-2,5,8,11-tetraone] the IC50 was 0.351 nM and the Max % inhibition was 110.0%.

In the case of `COC[C@@H]1NC(=O)[C@H](C)N(Cc2c(F)cc(Cl)cc2Oc2ccc(-c3cnc(CN(C)C)n3C)cc2)C(=O)C[C@@H](Cc2cccc(C)[n+]2[O-])C(=O)N2CCC[C@@](Cc3ccc(Cl)cc3)(C2)N(C)C1=O` [Compound 168, 2-(((3R, 7S, 10S, 13R)-6-(4-chloro-2-(4-(2-((dimethylamino)methyl)-1-methyl-1H-imidazol-5-yl)phenoxy)-6-fluorobenzyl)-13-(4-chlorobenzyl)-10-(methoxymethyl)-7,12-dimethyl-2,5,8,11-tetraoxo-1,6,9,12-tetraazabicyclo[11.3.1]heptadecan-3-yl)methyl)-6-methylpyridine 1-oxide], the IC50 is reported as 0.81 nM and the Max % inhibition is reported as 114.9%.

`C[C@H]1C(=O)N[C@@H](CO)C(=O)N[C@@]2(Cc3ccc(Cl)cc3)CCCN(C2)C(=O)[C@H](Cc2c(F)cccc2F)CC(=O)N1Cc1c(F)cc(Cl)cc1Oc1ccc(-c2cnc(CN(C)C)n2C)cc1` [Compound 34, (3R, 7S, 10S, 13R)-6-(4-chloro-2-(4-(2-((dimethylamino)methyl)-1-methyl-1H-imidazol-5-yl)phenoxy)-6-fluorobenzyl)-13-(4-chlorobenzyl)-3-(2,6-difluorobenzyl)-10-(hydroxymethyl)-7-methyl-1,6,9,12-tetraazabicyclo[11.3.1]heptadecane-2,5,8,11-tetraone] gave an IC50 of 0.509 nM and a Max % inhibition of 101.6%.

`COC[C@@H]1NC(=O)[C@H](C)N(Cc2ccc(Cl)cc2Oc2ccc(-c3cnc(CN4CCCC4)n3C)cc2)C(=O)C[C@@H]([C@H]2CCc3ccccc32)C(=O)N(C)C[C@@H](Cc2ccc(Cl)cc2)N(C)C1=O.Cl` [Compound 101, (2S, 5S, 8R, 12S)-1-(4-chloro-2-(4-(1-methyl-2-(pyrrolidin-1-ylmethyl)-1H-imidazol-5-yl)phenoxy)benzyl)-8-(4-chlorobenzyl)-12-((R)-2,3-dihydro-1H-inden-1-yl)-5-(methoxymethyl)-2,7,10-trimethyl-1,4,7,10-tetraazacyclotetradecane-3,6,11,14-tetraone] showed an IC50 of 1.94 nM and a Max % inhibition of 98.3%.

With `COC[C@@H]1NC(=O)[C@H](C)N(Cc2ccc(Cl)cc2Oc2ccc(-c3cnc(CN(C)C)n3C)cc2)C(=O)C[C@@H](Cc2ccccc2)C(=O)N2CCC[C@@](Cc3ccc(Cl)cc3)(C2)N(C)C1=O` [Compound 65, (3R, 7S, 10S, 13R)-3-benzyl-6-(4-chloro-2-(4-(2-((dimethylamino)methyl)-1-methyl-1H-imidazol-5-yl)phenoxy)benzyl)-13-(4-chlorobenzyl)-10-(methoxymethyl)-7,12-dimethyl-1,6,9,12-tetraazabicyclo[11.3.]heptadecane-2,5,8,11-tetraone] the IC50 was 0.621 nM and the Max % inhibition was 109.2%.
